Melting point data for 91 molecules are collected here from a melting point compilation (Tetko et al.; mined from patent text by program, amines drawn as free bases though some values may be those of a salt).

Regarding `CCCCc1cn(-c2c(C)cccc2Cl)c(=O)n1Cc1ccc(-c2ccccc2-c2nnn[nH]2)cc1`, the melting point (in general, the temperature of the solid-liquid transition) was 163 to 164 °C.

Molecule `COc1cc2c(cc1F)CCN=C2C1(c2ccccc2Cl)CC1` gave a melting point of 172 to 176 °C.

For `OC1CSC(Oc2cccnc2Br)C(O)C1O` (stereo unspecified), the melting point was found to be 151 °C.

`CCCOc1cc2nc(Cl)nc(Cl)c2cc1OC` showed a melting point of 118 to 120 °C.

`CCCCC(=O)NCc1ccc2c(c1)C(=O)N(C1CCC(=O)NC1=O)C2=O` (stereo unspecified) returned a melting point of 184 to 186 °C.

Regarding `Cc1ccc(-c2cc(C)ccc2C=CC#Cc2ccc(C(=O)O)cc2)cc1`, the melting point fell in the range of 71 to 73 °C.

On to `c1ccc(CC23CCN(CC2)CC3)cc1`, for which the melting point turned out to be 48 °C.

`COC(=O)c1ccccc1S(=O)(=O)NC(=O)Nc1nc(C)cc(OC)n1` registered a melting point of 173 to 179 °C.

The molecule `NS(=O)(=O)c1ccc(N2CCN(CC[C@@H]3OCCc4cc(Br)ccc43)CC2)c(Br)c1` displayed a melting point of 206 to 208 °C.

Molecule `COc1ccc2cc(Br)cc(C)c2n1` returned a melting point of 89 to 91 °C.

As to `O=C1CCC2=C(CCc3c(Cl)cccc32)N1`, the melting point was in the range of 252 to 253 °C.

For the molecule `CCOC(=O)/C=C/C=C/c1ccc(OCC(F)(F)C(F)F)cc1`, the melting point lay within 65 to 66 °C.

Take `CC(C)Sc1c(C(N)=O)sc2cccc(Cl)c12`: the melting point lay within 182 to 184 °C.

The molecule `NNc1ccc(-c2nnn(Cc3ccccc3)n2)cc1` returned a melting point of 182 to 185 °C.

`O=C(Nn1ccc2ccccc21)C1=CCCN(CCN2CCCCC2)C1`: the melting point came to 65 °C.

Molecule `C#CCNC(=O)NC1CCC(=O)c2sccc21` (stereo unspecified) came in with a melting point of 170 to 183 °C.

As to `Cc1nc[nH]c1CSCCN=C(NC#N)NCCN`, the melting point lay within 164 to 167 °C.

Regarding `COC(=O)C1C(C)=NC(N2CCCCC2)=C(C(=O)OC(C)C)C1c1cccc([N+](=O)[O-])c1` (stereo unspecified), the melting point came out at 112 °C.

`COc1ccc(N2C(=O)Cc3ccccc32)cc1` gave a melting point of 115 to 117 °C.

The molecule `C=C[C@H](C)[C@@](N)(C(N)=O)c1ccccc1` (relative stereo) had a melting point of 90 °C.

Take `Cc1cc(-c2nc(-c3ccc(OC(F)(F)F)cc3)no2)nn1Cc1ccnc(N2CCN(C3CC3)CC2)c1`: the melting point is 140 °C.

With `FC(F)(F)c1ccc2nc(-c3ccccc3)oc2n1`, the melting point fell in the range of 127 to 129 °C.

With `CN(C)OCc1nnc2n1-c1ccc(Cl)cc1C(c1ccccc1)=NC2`, the melting point was found to be 174 °C.

`CCc1nc(N)nc(N)c1-c1cccc(Cl)c1Cl` had a melting point of 228 to 230 °C.

`CC(=Cc1ccc(C(C)C)cc1)c1ccc2c(c1)C(C)(C)CCC2(C)C`: the melting point was in the range of 86 to 87 °C.

The molecule `CC(=O)OCC1OC(n2c(Cl)c(C#N)c3cc(Cl)c(Cl)cc32)C(O)C1O` (stereo unspecified) had a melting point of 103 to 104 °C.

The molecule `CCOC(=O)c1ccc2c(c1)ncn2-c1cccc(COCc2ccccn2)c1` had a melting point of 99.8 to 101 °C.

In turn, `COc1ccc(-c2n[nH]c3c2C(O)c2ccccc2-3)cc1OC` (stereo unspecified) registered a melting point of 197 to 199 °C.

Consider `S=c1cc(N2CCCC2)ss1`, for which the melting point was found to be 230 °C.

The molecule `COC(=O)c1ccc(OCCCc2ccccc2)cc1O` returned a melting point of 101 to 102 °C.

As to `COc1ccc(-c2c(NS(=O)(=O)c3ccc(C)cc3)ncnc2OCCO)cc1`, the melting point fell in the range of 147 to 149 °C.

`CCS(=O)(=O)Nc1ccc([N+](=O)[O-])cc1OC1CCCCC1` showed a melting point of 94 to 95 °C.

`CC(C)Nc1nc2ccccn2c(=O)c1-c1ccc(NC2CCN(C(=O)OC(C)(C)C)C2)cc1` (stereo unspecified) displayed a melting point of 210 to 212 °C.

`CC(O)c1nccc(N2CCc3cc(-c4ccsc4)ccc3C2)n1` (stereo unspecified) registered a melting point of 126 to 128 °C.

Regarding `CCN(CC)c1ccc(-n2c(CC(=O)O)c(C(=O)O)c3cc(Oc4ccc(C(F)(F)F)cc4)ccc32)cc1`, the melting point lay within 234 to 236 °C.

`CC(=O)SC(CC(=O)c1ccc(Cl)cc1Cl)C(=O)O` (stereo unspecified) yielded a melting point of 73 to 74.5 °C.

`O=C(O)c1[nH]c(=O)n2c1CN=C(c1ccccc1Cl)c1cc(Cl)ccc1-2`: the melting point lay within 236 to 238 °C.

For `CCC(CC)C(c1ccnn1-c1ccccc1)N(C)S(=O)(=O)c1ccc(Cl)c(Cl)c1` (stereo unspecified), the melting point is 102 to 104 °C.

The molecule `COc1ccc2c(Br)csc2c1` gave a melting point of 62 °C.

`CON(O)C(=O)c1ccccc1` registered a melting point of 58 to 60 °C.

Consider `Cc1ccc2cccc(OCc3cc(N(C)C(=O)CN4C(=O)c5ccccc5C4=O)ccc3Cl)c2n1`, for which the melting point lay within 120 to 124 °C.

In the case of `CCOC(=O)C(=O)Nc1sc(C(=O)OCC)c(CC)c1[N+](=O)[O-]`, the melting point was 70 to 73 °C.

The molecule `O=C(CCl)NCc1ccc2ccn(C3CCN(CCc4ccc(F)cc4)CC3)c2c1` registered a melting point of 143 to 144 °C.

Molecule `CC(=O)O[C@@H]1[C@H](OC(C)=O)[C@@H](C)O[C@H]1n1c(Cl)nc2c(Br)c(Cl)c(Cl)cc21` came in with a melting point of 138 to 141 °C.

`O=C(O)CCCCCOc1cc(-c2ccccc2)cc(-c2ccccc2)c1` yielded a melting point of 104 °C.

Consider `Cc1cn(C[C@H]2CN(c3ccc(-c4ccc(C#N)nc4)c(F)c3)C(=O)O2)nn1`, for which the melting point fell in the range of 210 to 212 °C.

Molecule `CC(C)C(=O)OC(OC(=O)NC1(C(=O)O)CC1)C(C)C` (stereo unspecified) returned a melting point of 127 to 129 °C.

Regarding `CCC(=O)NCC(CO)c1cccc2ccc(OC)cc12` (stereo unspecified), the melting point is 128 to 129 °C.

On to `COc1cc(C)c(NCCO)cc1N`, for which the melting point was 148 °C.

`COC(=O)c1ccc(CCc2csc(NC(C)=O)n2)cc1` gave a melting point of 170 to 171 °C.

On to `Cc1ncc([N+](=O)[O-])n1-c1nccc2[nH]c(=O)ccc12`, for which the melting point is over 300 °C.

Molecule `CC(=O)OC(CCc1cc(C(C)(C)C)c(O)c(C(C)(C)C)c1)CCc1cc(C(C)(C)C)c(O)c(C(C)(C)C)c1` registered a melting point of 82 to 85 °C.

Consider `Cc1ccc(-n2c(=O)n(O)c(=O)c3cc(F)c(N4CCCC4)nc32)cc1`, for which the melting point fell in the range of 228 to 230 °C.

Take `CC(=O)OCc1ccc(C#Cc2ccc3c(c2)C(C)(C)CCC3(C)C)cc1`: the melting point lay within 136 to 139 °C.

`c1ccc2c(c1)NCCc1nncn1-2` returned a melting point of 162 to 165 °C.

Regarding `CC(C)n1nc(-c2sc(NC(=O)CN3CCCCC3)nc2-c2ccccc2)ccc1=O`, the melting point lay within 189 to 190 °C.

For `CCOC(=O)N(CC)c1cccc(-c2ccc3nnc(C)n3n2)c1`, the melting point fell in the range of 132 to 135 °C.

For `COc1cc(C)nc(-n2ccnc2)n1`, the melting point lay in the range of 53 to 54 °C.

`NS(=O)(=O)c1ccc(-c2c(-c3ccccc3)noc2C(=O)O)cc1` showed a melting point of 300 °C.

Regarding `Cc1ccc(S(=O)(=O)Nc2nc(C)c(C(=O)NCc3ccccc3)s2)cc1`, the melting point was 242 to 245 °C.

`CC(=O)/C=C1/C(=O)N(c2ccccc2)C1c1ccccc1` (stereo unspecified) displayed a melting point of 158 °C.

On to `Cc1nc(N2CCN(Cc3ccccc3)C2=N)sc1C(=O)NCc1ccc(F)c(F)c1`, for which the melting point is 140 to 142 °C.

`CCn1cc(C(=O)O)c(=O)c2c1CCCC2=O` came in with a melting point of 212 to 214 °C.

Take `COc1c(NC(=O)c2ccc(C)c(-n3cc(C(=O)NCc4cccnc4)cn3)c2)cc(C(C)(C)C)cc1NS(C)(=O)=O`: the melting point lay in the range of 127 to 133 °C.

`O=C(O)c1ncsc1-c1cccc(I)c1` displayed a melting point of 186 °C.

`COCc1c(I)cc(Cl)nc1OC` had a melting point of 69 to 72 °C.

In the case of `CC(C)(C)Nc1c(NCc2ccc(F)cc2C(F)(F)F)c(=O)c1=O`, the melting point lay within 192 to 194 °C.

In the case of `COCOc1ccc(CCNC(=O)/C(C#N)=C/c2cccnc2)cc1`, the melting point fell in the range of 105 to 106 °C.

`O=c1c2c(Cc3ccccc3[N+](=O)[O-])n[nH]c2c2cccnc2n1-c1cccc(OC(F)(F)F)c1` had a melting point of 274 to 276 °C.

The molecule `O=S(=O)(Cc1ccccc1)c1nc2ccc(O)cc2s1` registered a melting point of 188 to 189 °C.

`CNn1c(N(C)C)n[nH]c1=O` registered a melting point of 129 °C.

For the molecule `COc1c(S(=O)(=O)Cl)ccc(Cl)c1CBr`, the melting point was in the range of 88 to 92 °C.

Molecule `COC(=O)Cc1ccc2nc(Nc3ccccc3C)oc2c1` displayed a melting point of 128 to 129 °C.

Regarding `FC(F)(F)c1nnc2nc(-c3ccccc3)c3cc(Cl)ccc3n12`, the melting point is 241 to 242 °C.

For `CS(=O)(=O)c1ccc(C(=O)C(=O)c2ccc(F)cc2)cc1`, the melting point was in the range of 174 to 175 °C.

With `CC(C)(C)NC(=O)c1ncccc1CCc1ccc(F)cc1`, the melting point fell in the range of 59 to 61 °C.

Regarding `CCCCCCCCCCCCNC(=O)N(C)C[C@H](O)[C@@H](O)[C@H](O)[C@H](O)CO`, the melting point was determined as 117 °C.

`CCCCC(=O)c1c(-c2ccc3cc(OCC(=O)OCC)ccc3c2)oc2ccc(Cl)cc12` displayed a melting point of 80 to 83 °C.

The molecule `CCOC(=O)CNC(=O)[C@@H]1CS[C@H](c2ccccc2O)N1C(=O)CCSC(=O)c1ccccc1` returned a melting point of 134 to 135 °C.

`CC(=O)OCC(=O)C1(O)CCC2C3CCC4=CC(=O)C=CC4(C)C3CCC21C` (stereo unspecified): the melting point turned out to be 214 °C.

As for `CC(C(=O)O)c1cc(F)c([N+](=O)[O-])cc1[N+](=O)[O-]` (stereo unspecified), the melting point was in the range of 141 to 142 °C.

For the molecule `CNCCc1ccc2[nH]c(C)c(C(=O)OCc3ccccc3)c2c1`, the melting point is 65 to 68 °C.

Regarding `CO[C@H]1O[C@@H](C)[C@H]2[C@@H]1C[C@H]1CCCC[C@@H]1[C@H]2CS(=O)(=O)c1ccccc1`, the melting point lay in the range of 136 to 137 °C.

In the case of `NCCOc1ncc(Cl)c(N)c1Cl`, the melting point is 115 to 116 °C.

`O=[N+]([O-])c1ccc(-c2cc3c(O)ncnc3o2)cc1` came in with a melting point of over 350 °C.

Molecule `COc1nc2c(cc1C#N)CCCCC2` came in with a melting point of 83.5 to 84 °C.

Regarding `O=C(c1ccn2c1CSC2c1cccnc1)c1c[nH]c2cc(Br)ccc12` (stereo unspecified), the melting point was 265 °C.

Regarding `CC1(C)CCc2cc(C(=O)c3ccc4cc(C(=O)O)ccc4c3)ccc2O1`, the melting point is 269 °C.

As for `COc1ccc2c(c1F)C(=O)N(Nc1ccncc1)C2=O`, the melting point was 206 to 210 °C.

Take `CC1C=C(Nc2ccc(OC(F)(F)F)cc2)N(C)N1` (stereo unspecified): the melting point fell in the range of 80 to 82 °C.

`O=C(OCc1ccccc1)c1ccc(CCCOCCCCCCNCC(O)c2ccc(O)c(CO)c2)cc1` (stereo unspecified): the melting point fell in the range of 51 to 52 °C.
